Test results from patent US7432303B2, “Chalcone and its analogs as agents for the inhibition of angiogenesis and related disease states” (James and Emory University, priority 1999, dated 2008).
Where two headings read alike, the source gives them in different places.

Test system: SVR cells
Experiment: SVR cell assay: cell numbers counted at 48 hours, percent inhibition versus control
Format: cell-based, murine
Settings: for inhibition at 1 µg/mL: read-out: Percent Inhibition at a Specified Density (μg/ml): 1; for inhibition at 3 µg/mL: read-out: Percent Inhibition at a Specified Density (μg/ml): 3; for inhibition at 6 µg/mL: read-out: Percent Inhibition at a Specified Density (μg/ml): 6
[1] = Mus musculus, 1 μg/ml, 10,000 SVR cells in 24 well dish, counted at 48 hours
[2] = Mus musculus, 3 μg/ml, 10,000 SVR cells in 24 well dish, counted at 48 hours
[3] = Mus musculus, 6 μg/ml, 10,000 SVR cells in 24 well dish, counted at 48 hours
[4] = 1 μg/ml, 10,000 SVR cells in 24 well dish, counted at 48 hours
[5] = 3 μg/ml, 10,000 SVR cells in 24 well dish, counted at 48 hours
[6] = 6 μg/ml, 10,000 SVR cells in 24 well dish, counted at 48 hours

Protocol: In the case of testing the anti-angiogenic/anti-cancer activity of compounds according to the present invention, an assay based on SVR cells may be employed. […] The cell numbers are counted and compared against controls. Percent inhibition is readily determined from the data obtained.
10,000 SVR cells were seeded in a 24 well dish [Arbiser, et al., J. Am. […] The cell numbers were counted at 48 hours.

What does the source list for `CC(=O)c1cc2cc(Br)ccc2oc1=O` [Compound 12, 3-Acetyl-6-bromocoumarin, reference compound]?
inhibition at 1 µg/mL [1]: 20%; inhibition at 3 µg/mL [2]: 12.7%; inhibition at 6 µg/mL [3]: 17.4%

`O=C1C(=Cc2ccccc2)CCC1=Cc1ccccc1` [Compound 4, 2,5-(Dibenzylidene)cyclopentanone] was tested. Which “Percent Inhibition at a Specified Density (μg/ml): 1” value (“Percent Inhibition … 1” for short) [4] did it give?
The value was 19.6%.

And the “Percent Inhibition at a Specified Density (μg/ml): 3” value (shortened to “Percent Inhibition … 3”) [5]?
Its value is 23.8%.

What about the “Percent Inhibition at a Specified Density (μg/ml): 6” value (“Percent Inhibition … 6” below) [6] of the same molecule?
Its value is 38.6%.

What does the source list for `Cc1ccc(C(=O)/C=C/c2ccc(Cl)cc2)cc1` [Compound 30, 4-Chloro-4′-methylchalcone]?
inhibition at 1 µg/mL [1]: 22.3%; inhibition at 3 µg/mL [2]: 24.5%; inhibition at 6 µg/mL [3]: 46.5%

For `Cc1ccc(C(=O)/C=C/c2ccccc2Cl)c(C)c1` [Compound 21, 2-Chloro-2′,4′-dimethylchalcone], which inhibition at 1 µg/mL [1] is on record?
The inhibition at 1 µg/mL was 29.6%.

And the inhibition at 3 µg/mL [2]?
Its inhibition at 3 µg/mL is 25.2%.

And the inhibition at 6 µg/mL [3]?
Its inhibition at 6 µg/mL is 73.4%.

How did the inhibition at 1 µg/mL [1] turn out when `O=C(/C=C/c1c(F)cccc1Cl)/C=C/c1c(F)cccc1Cl` [Compound 72, 1,5-Di(2-chloro-6-fluorophenyl)-1E,4E-pentadien-3-one] was run?
Its inhibition at 1 µg/mL is 57%.

What about the inhibition at 3 µg/mL [2] of the same molecule?
Its inhibition at 3 µg/mL is 70.6%.

And the inhibition at 6 µg/mL [3]?
The inhibition at 6 µg/mL was 86.6%.

`Cc1ccc(/C=C/C(=O)c2ccc(Cl)cc2)cc1` [Compound 29, 4′-Chloro-4-methylchalcone] was tested. Which inhibition at 1 µg/mL [1] did it give?
The inhibition at 1 µg/mL was 29.9%.

And the inhibition at 3 µg/mL [2]?
Its inhibition at 3 µg/mL is 40.2%.

What about the inhibition at 6 µg/mL [3] of the same molecule?
The inhibition at 6 µg/mL was 58.5%.

`O=C(C=Cc1cccnc1)c1ccccc1` [Compound 48, 1-Phenyl-3-(3-pyridyl)propenone] was tested. Which “Percent Inhibition … 1” value [4] did it give?
The value was 30.0%.

And the “Percent Inhibition … 3” value [5]?
The value was 31.7%.

What about the “Percent Inhibition … 6” value [6] of the same molecule?
Its value is 83.2%.

What does the source list for `CC(=O)/C=C/c1ccccc1` [Compound 5, 4-Phenyl-3E-buten-2-one]?
inhibition at 1 µg/mL (Mus musculus, SVR, 48 h): 41.9%; inhibition at 3 µg/mL (Mus musculus, SVR, 48 h): 69%; inhibition at 6 µg/mL (Mus musculus, SVR, 48 h): 64%

For `Cc1cccc(C)c1/C=C/C(=O)c1ccccc1` [Compound 23, 2,6-Dimethylchalcone], which inhibition at 1 µg/mL [1] is on record?
Its inhibition at 1 µg/mL is 47.7%.

And the inhibition at 3 µg/mL [2]?
The inhibition at 3 µg/mL was 57.9%.

And the inhibition at 6 µg/mL [3]?
Its inhibition at 6 µg/mL is 89.6%.

What does the source list for `O=C(/C=C/c1c(F)c(F)c(F)c(F)c1F)c1ccccc1` [Compound 35, 2,3,4,5,6-Pentafluorochalcone]?
inhibition at 1 µg/mL [1]: 0%; inhibition at 3 µg/mL [2]: 0%; inhibition at 6 µg/mL [3]: 0%

Which “Percent Inhibition … 1” value [4] does the source give for `O=C1C(=Cc2c(Cl)cccc2Cl)CCc2ccccc21` [Compound 69, 2-(2,6-Dichlorobenzylidene)tetralone] here?
Its value is 32.8%.

What about the “Percent Inhibition … 3” value [5] of the same molecule?
The value was 37.0%.

And the “Percent Inhibition … 6” value [6]?
Its value is 53.7%.

Which inhibition at 3 µg/mL [2] does the source give for `O=C(/C=C/c1c(Cl)cccc1Cl)c1ccccc1` [Compound 31, 2,6-Dichlorochalcone] here?
The inhibition at 3 µg/mL was 92.9%.

And the inhibition at 6 µg/mL [3]?
The inhibition at 6 µg/mL was 97.5%.

What about the inhibition at 9 µg/mL (Mus musculus, 9 μg/ml, 10,000 SVR cells in 24 well dish, counted at 48 hours, read-out: Percent Inhibition at a Specified Density (μg/ml): 9) of the same molecule?
The inhibition at 9 µg/mL was 97.9%.

Which results are given for `O=C1C(=Cc2ccccc2)CCc2ccccc21` [Compound 68, 2-(Benzylidene)tetralone]?
Percent Inhibition at a Specified Density (μg/ml): 3 [5]: 57.9%; Percent Inhibition at a Specified Density (μg/ml): 6 [6]: 97.5%; Percent Inhibition at a Specified Density (μg/ml): 9 (9 μg/ml, 10,000 SVR cells in 24 well dish, counted at 48 hours): 96.7%

How did the inhibition at 1 µg/mL [1] turn out when `O=C(/C=C/c1ccc(Cl)cc1)c1ccc(Cl)cc1` [Compound 19, 4,4′-Dichlorochalcone] was run?
The inhibition at 1 µg/mL was 13.8%.

And the inhibition at 3 µg/mL [2]?
Its inhibition at 3 µg/mL is 11.7%.

And the inhibition at 6 µg/mL [3]?
The inhibition at 6 µg/mL was 31.1%.
